Patent publication US9976141B2, “Compositions and methods for inhibiting gene expression of Hif2alpha” (Arrowhead Madison Inc., priority 2015, dated 2018)

Each substance was assayed on human (tumor) Hif2α (EPAS1) mRNA (assay: Hif2α knockdown in orthotopic RCC tumor bearing mice, single injection of RNAi trigger-delivery polymer conjugate, RT-qPCR (Table 7)). Details: RNAi trigger 50 μg, polymer 064 125 μg; single tail vein injection; relative to isotonic glucose.
Assay type: in vivo
Procedure, shortened: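 Female athymic nude mice carried orthotopic A498-SEAP ccRCC kidney tumours, used 5–6 weeks after implantation. They received one tail-vein injection of RGD-targeted Hif2α RNAi trigger–polymer conjugate or isotonic glucose. Tumour Hif2α mRNA was measured by TaqMan RT-qPCR normalised to CycA (ΔΔCT) and expressed relative to glucose-treated mice.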

Row | Substance | Relative Expression day 4 (Hif2α mRNA in kidney tumor)
1 | AD02735 (antisense AUUCAUGAAAUCGUUACGUUG; sense ACGUAACGAUUUCAUGAAUT; Hif2alpha RNAi agent antisense strand; modified_base 2,4,6,8,10,14,16,18 /mod_base = “2′-deoxy-2′-fluoro corresponding nucleoside”; modified_base 1,3,5,7,9,11,12,13,15,17,19,20,21 /mod_base = “2′-O-methyl corresponding nucleoside”; modified_base 2,3,20,21 /mod_base = “5′-phosphorothioate corresponding nucleotide”; Hif2alpha RNAi agent sense strand; modified_base 3,5,7,8,9,13,15,17 /mod_base = “2′-deoxy-2′-fluoro corresponding nucleoside”; modified_base 1,2,4,6,10,11,12,14,16,18,19 /mod_base = “2′-O-methyl corresponding nucleoside”; modified_base 20 /mod_base = “3′-3′-linked nucleotide”; modi) | 0.144
2 | AD02857 (antisense UUUCAUGAAAUCGUUACGUUG; sense ACGUAACGAUUUCAUGAAAT; Hif2alpha RNAi agent antisense strand; modified_base 2,4,6,8,10,14 /mod_base = “2′-deoxy-2′-fluoro corresponding nucleoside”; modified_base 1,3,5,7,9,11,12,13,15,16,17,18,19,20,21 /mod_base = “2′-O-methyl corresponding nucleoside”; modified_base 2,3,20,21 /mod_base = “5′-phosphorothioate corresponding nucleotide”; Hif2alpha RNAi agent sense strand; modified_base 7,8,9 /mod_base = “2′-deoxy-2′-fluoro corresponding nucleoside”; modified_base 1,2,3,4,5,6,10,11,12,13,14,15,16,17,18,19 /mod_base = “2′-O-methyl corresponding nucleoside”; modified_base 20 /mod_base = “3′-3′-linked nucleotide”; modi) | 0.192
3 | AD02858 (antisense UUUCAUGAAAUCGUUACGUUG; sense ACGUAACGAUUUCAUGAAAT; Hif2alpha RNAi agent antisense strand; modified_base 2,3,4,8,10,14 /mod_base = “2′-deoxy-2′-fluoro corresponding nucleoside”; modified_base 1,5,6,7,9,11,12,13,15,16,17,18,19,20,21 /mod_base = “2′-O-methyl corresponding nucleoside”; modified_base 2,3,20,21 /mod_base = “5′-phosphorothioate corresponding nucleotide”; Hif2alpha RNAi agent sense strand; modified_base 7,8,9 /mod_base = “2′-deoxy-2′-fluoro corresponding nucleoside”; modified_base 1,2,3,4,5,6,10,11,12,13,14,15,16,17,18,19 /mod_base = “2′-O-methyl corresponding nucleoside”; modified_base 20 /mod_base = “3′-3′-linked nucleotide”; modi) | 0.192
4 | AD02859 (antisense UUUCAUGAAAUCGUUACGUUG; sense ACGUAACGAUUUCAUGAAAT; Hif2alpha RNAi agent antisense strand; modified_base 2,4,6,8,14 /mod_base = “2′-deoxy-2′-fluoro corresponding nucleoside”; modified_base 1,3,5,7,9,10,11,12,13,15,16,17,18,19,20,21 /mod_base = “2′-O-methyl corresponding nucleoside”; modified_base 2,3,20,21 /mod_base = “5′-phosphorothioate corresponding nucleotide”; Hif2alpha RNAi agent sense strand; modified_base 7,8,9 /mod_base = “2′-deoxy-2′-fluoro corresponding nucleoside”; modified_base 1,2,3,4,5,6,10,11,12,13,14,15,16,17,18,19 /mod_base = “2′-O-methyl corresponding nucleoside”; modified_base 20 /mod_base = “3′-3′-linked nucleotide”; modi) | 0.214
5 | AD02860 (antisense UUUCAUGAAAUCGUUACGUUG; sense ACGUAACGAUUUCAUGAAAT; Hif2alpha RNAi agent antisense strand; modified_base 2,3,8,10,14 /mod_base = “2′-deoxy-2′-fluoro corresponding nucleoside”; modified_base 1,4,5,6,7,9,11,12,13,15,16,17,18,19,20,21 /mod_base = “2′-O-methyl corresponding nucleoside”; modified_base 2,3,20,21 /mod_base = “5′-phosphorothioate corresponding nucleotide”; Hif2alpha RNAi agent sense strand; modified_base 7,8,9 /mod_base = “2′-deoxy-2′-fluoro corresponding nucleoside”; modified_base 1,2,3,4,5,6,10,11,12,13,14,15,16,17,18,19 /mod_base = “2′-O-methyl corresponding nucleoside”; modified_base 20 /mod_base = “3′-3′-linked nucleotide”; modi) | 0.165
6 | AD02861 (antisense UUUCAUGAAAUCGUUACGUUG; sense UAUACGUAACGAUUUCAUGAAAT; Hif2alpha RNAi agent antisense strand; modified_base 2,4,6,8,10,14 /mod_base = “2′-deoxy-2′-fluoro corresponding nucleoside”; modified_base 1,3,5,7,9,11,12,13,15,16,17,18,19,20,21 /mod_base = “2′-O-methyl corresponding nucleoside”; modified_base 2,3,20,21 /mod_base = “5′-phosphorothioate corresponding nucleotide”; Hif2alpha RNAi agent sense strand; modified_base 2 modified base = “2′-hydroxy corresponding nucleoside”; modified_base 10,11,12 /mod_base = “2′-deoxy-2′-fluoro corresponding nucleoside”; modified_base 1,3,4,5,6,7,8,9,13,14,15,16,17,18,19,20,21,22 /mod_base = “2′-O-methyl correspon) | 0.103
7 | AD02862 (antisense AUUCAUGAAAUCGUUACGUUG; sense UAUACGUAACGAUUUCAUGAAUT; Hif2alpha RNAi agent antisense strand; modified_base 2,4,6,8,10,14,16,18 /mod_base = “2′-deoxy-2′-fluoro corresponding nucleoside”; modified_base 1,3,5,7,9,11,12,13,15,17,19,20,21 /mod_base = “2′-O-methyl corresponding nucleoside”; modified_base 2,3,20,21 /mod_base = “5′-phosphorothioate corresponding nucleotide”; Hif2alpha RNAi agent sense strand; modified_base 2 modified base = “2′-hydroxy corresponding nucleoside”; modified_base 6,8,10,11,12,16,18,20 /mod_base = “2′-deoxy-2′-fluoro corresponding nucleoside”; modified_base 1,3,4,5,7,9,13,14,15,17,19,21,22 /mod_base = “2′-O-methyl correspon) | 0.093

Same assay, conditions: RNAi trigger 75 μg, polymer 064 187.5 μg; single tail vein injection; relative to isotonic glucose

Row | Substance | Relative Expression day 4 (Hif2α mRNA in kidney tumor)
8 | AD02733 (antisense UUUCAUGAAAUCGUUACGUUG; sense ACGUAACGAUUUCAUGAAAT; Hif2alpha RNAi agent antisense strand; modified_base 2,4,6,8,10 /mod_base = “2′-deoxy-2′-fluoro corresponding nucleoside”; modified_base 1,3,5,7,9,11,12,13,14,15,16,17,18,19,20,21 /mod_base = “2′-O-methyl corresponding nucleoside”; modified_base 2,3,20,21 /mod_base = “5′-phosphorothioate corresponding nucleotide”; Hif2alpha RNAi agent sense strand; modified_base 7,9 /mod_base = “2′-deoxy-2′-fluoro corresponding nucleoside”; modified_base 1,2,3,4,5,6,8,10,11,12,13,14,15,16,17,18,19 /mod_base = “2′-O-methyl corresponding nucleoside”; modified_base 20 /mod_base = “3′-3′-linked nucleotide”; modi) | 0.283
9 | AD02734 (antisense UUUCAUGAAAUCGUUACGUUG; sense ACGUAACGAUUUCAUGAAAT; Hif2alpha RNAi agent antisense strand; modified_base 2,4,6,8 /mod_base = “2′-deoxy-2′-fluoro corresponding nucleoside”; modified_base 1,3,5,7,9,10,11,12,13,14,15,16,17,18,19,20,21 /mod_base = “2′-O-methyl corresponding nucleoside”; modified_base 2,3,20,21 /mod_base = “5′-phosphorothioate corresponding nucleotide”; Hif2alpha RNAi agent sense strand; modified_base 7,9 /mod_base = “2′-deoxy-2′-fluoro corresponding nucleoside”; modified_base 1,2,3,4,5,6,8,10,11,12,13,14,15,16,17,18,19 /mod_base = “2′-O-methyl corresponding nucleoside”; modified_base 20 /mod_base = “3′-3′-linked nucleotide”; modi) | 0.262
